Reference: article PMC4633953, “FR171456 is a specific inhibitor of mammalian NSDHL and yeast Erg26p” (Nature Communications, 2015)
Values joined by “and” are separate entries in the source; they are usually repeats but may differ in a detail not shown here. Equal entries are not always repeated. “Also recorded” adds a separate entry of the source.

Key:
[1] = test system: replicon-carrying Huh-7 cells; test: Proliferation/viability of replicon-carrying Huh-7 cells (resazurin); type: cell-based, human; conditions: replicon assay conditions
Description: The inhibitor screening was performed in 1,536-well plate with 3,000 cells per well, using Huh-7 cells containing the HCV replicon subgenomic genotype 1b, maintained in DMEM, supplemented with (1 × ) L-glutamine (L-Glue), 1 × non-essential amino acids, 10% heat-inactivated fetal bovine serum (FBS), and 1 mg ml^–1 G418, and incubated with compounds for 48 h at 37 °C, 5% CO2. […] Following compound incubation, Resazurin solution (10 × : 1 μg μl^–1 Resazurin in DMSO) diluted to 1 × was then added to a volume of 0.5 μl to each well and incubated for further 3 h at 37 °C, 5% CO2 to monitor cell viability. Subsequently 15 μl, diluted 1:2 from stock of Steady- Glo (Promega) was added and the luminescence from the HCV replicon was monitored using the Envision (Envision US Lum, using 0.1 s per well measurement time).

[2] = test system: 503 cancer cell lines; test: Compound activity profile against 503 cancer cell lines (72 h, Cell TiterGlo); type: cell-based; conditions: sensitive = Amax <50% and IC50 <5 μM
Description: Supplementary figure 1. […] A plot […]
of normalized maximal inhibition (Y axis) versus the inflection point (X Axis) of a standard dose-response curve for increasing concentrations of FR171456 incubated with 503 mammalian cell lines in culture for 72h (each symbol), as determined by Cell TiterGlo (Promega)

[3] = test system: Saccharomyces cerevisiae NF3201; test: Antifungal MIC; type: cell-based
[4] = test system: Candida tropicalis NF2903; test: Antifungal MIC; type: cell-based
[5] = test system: Candida krusei NF2902; test: Antifungal MIC; type: cell-based; conditions: Pichia kudriavzevii
[6] = test system: Cryptococcus neoformans NF3102; test: Antifungal MIC; type: cell-based
[7] = test system: F. solani; test: Combination with clinical antifungal agents (Loewe synergy, growth by OD530); type: cell-based; conditions: >1 is synergistic
Description: incubated for 24 h in increasing combined doses of FR171456 and Amphotericin B, and growth
assessed by OD530. (a) Normalised growth rates plotted as % inhibition of growth. (b) Loewe excess
heat map showing difference between predicted scores based upon the addition of each agent
alone and the actual values detected plotted as difference in % of inhibition. (c) Loewe isobologram
- a comparison of the doses of each compound needed to achieve 50% inhibition of proliferation.

[8] = target: delta-opioid receptor (Homo sapiens, UniProt P41143); test: Radioligand competition assay; type: binding
Sequence of delta-opioid receptor (P41143 whole entry): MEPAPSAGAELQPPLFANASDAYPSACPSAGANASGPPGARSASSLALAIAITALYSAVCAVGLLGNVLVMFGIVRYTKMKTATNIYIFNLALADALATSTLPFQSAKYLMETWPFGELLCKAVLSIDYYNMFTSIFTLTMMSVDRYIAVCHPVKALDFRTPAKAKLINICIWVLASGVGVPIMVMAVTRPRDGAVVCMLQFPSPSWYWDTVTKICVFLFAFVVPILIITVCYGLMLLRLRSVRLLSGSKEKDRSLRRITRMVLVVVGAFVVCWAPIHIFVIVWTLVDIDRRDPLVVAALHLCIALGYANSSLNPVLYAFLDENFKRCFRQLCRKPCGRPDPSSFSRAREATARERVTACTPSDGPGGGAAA

[9] = test system: S. cerevisiae; test: Yeast fermentation with FR171456 and metabolic profiling for substrate accumulation; type: cell-based
Description: In the fermentation experiment, a single yeast colony was grown in 10 ml YP with galactose (2%) & Raffinose (1%) for 5 h (OD 1.0) at 30 °C. An inoculum (70 μl) from the same culture was used to inoculate 400 ml YP-gal (2%)+Raffinose (1%). This culture was then grown overnight at 30 °C. The OD at this point was 0.7. This culture was used to seed 20-l fermenter maintained at 30 °C. When OD in the fermenter was 0.7, then 1466, nM (IC80) of FR171456 was added to the fermenter. The cell pellets (3.8 g) were harvested after 7 h. Erg26p substrate (1.95 mg) was obtained by lipid extraction with ethylacetate and methanol.
Lipid extracts from yeast cells were prepared as described as above. Ergosterol and 4α-methylzymosterol-4-carboxylic acid were analysed on an UltiMate 3000 RS LC (Thermo Fisher Scientific, Waltham, MA, USA) coupled to a 4000 QTRAP (AB Sciex, Foster City, CA, USA), which was equipped with a ESI-Turbo Spray ion source (AB Sciex). […]
Ion source parameters and compound-dependent instrument parameters were optimized by infusing pure standard solutions of ergosterol and 4α-methylzymosterol-4-carboxylic acid, respectively. […] All mass transitions were monitored for 65 msec per SRM scan with a unit/unit resolution for Q1/Q3. […]

[10] = target: T1, Erg26p (Saccharomyces cerevisiae, UniProt P53199); test: In vitro microsomal Erg26p activity assay (GC-MS)
T1 sequence (P53199 1-349): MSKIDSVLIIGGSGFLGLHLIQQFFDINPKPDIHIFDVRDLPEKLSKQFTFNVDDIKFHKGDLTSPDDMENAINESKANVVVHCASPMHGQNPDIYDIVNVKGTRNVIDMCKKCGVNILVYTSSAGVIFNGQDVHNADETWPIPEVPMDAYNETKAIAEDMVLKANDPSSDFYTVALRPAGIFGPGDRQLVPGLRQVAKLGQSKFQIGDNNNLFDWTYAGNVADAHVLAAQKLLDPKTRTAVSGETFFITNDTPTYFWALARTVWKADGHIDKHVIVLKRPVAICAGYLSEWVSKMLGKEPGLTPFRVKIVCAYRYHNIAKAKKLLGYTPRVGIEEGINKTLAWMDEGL
Description: To test this hypothesis an in vitro microsomal Erg26p activity assay[30] was used. Erg26p activity was directly assessed in the presence of increasing concentrations of FR171456 (10 nM–0.1 mM) in the presence of 150 μM carboxysterol substrate (Fig. 1c) and the cofactor NAD^+ (0.5 mM) followed by GC-MS detection of the product 4α-methyl-cholest-8,24-dien-3-one.
Wild-type yeast (FL200) microsomes were prepared as follows. Yeast cells were disrupted by glass bead homogenization (0.45-mm diameter) in 100 mM phosphate buffer (pH 7.5) containing 1.5 mM reduced glutathione and 30 mM nicotinamide for 8 min at 0 °C[44]. The cell extract was obtained by centrifugation at 10,000 × g for 20 min. Microsomes were then isolated by centrifuging the cell extract supernatant at 100,000 × g for 90 min. The resulting microsomal pellet was resuspended in 100 mM phosphate buffer (pH 7.5) containing 3 mM reduced glutathione and 20% glycerol (v/v) using an Elvehjem–Potter homogenizer. Yeast microsomes (1.2 mg of protein) were incubated in the presence of 4α-carboxy-4β-methyl-cholest-8,24-dien-3β-ol (50–300 mM) and NAD^+ (0.5 mM) for 35–45 min at 30 °C. After addition of coprostanone (2–6 μg) as internal standard, the reactions were extracted as described previously[12]. The extract was analysed by TLC on silica gel and eluted twice with CH2Cl2. The fraction migrating between a standard of 4-desmethyl-sterone (RF= 0.50) and 4,4-dimethyl-sterone (RF=0.70) was eluted and analysed using a GC-MS spectrometer (Agilent 5973 N).
In the case of inhibition assays, microsomes were incubated for 35–45 min at 30 °C in the presence of 4α-carboxy-4β-methyl-cholest-8,24-dien-3β-ol (50–300 mM) and a range of inhibitor concentration (0.01–100 μM) from which a dose–response curve was obtained allowing the corresponding I50 values to be determined.
The GC-MS spectrometer (Agilent 5973 N) was equipped with an ‘on column' injector and a capillary column (30 × 0.25 mm) coated with DB5 (H2 flow rate of 2 ml min^−1). The temperature program included a 30 °C min^−1 increase from 60 °C to 240 °C, and followed by a 2 °C/min increase from 240 °C to 280 °C. The areas of the GC peaks of coprostanone (tR=1.000) and of the produced 4α-methyl-cholest-8,24-dien-3-one (tR=1.139), corrected from endogenous component of the same tR (1.139) determined in the blank (boiled microsomes), allowed the rate of transformation of 4α-carboxy-4β-methyl-cholest-8,24-dien-3β-ol to be measured. Under these conditions, the estimated limit of detection of the 3βHSD/D activity was 0.1 nmol h^−1 mg^−1.

SMILES: C=C(CCC(C)C1CCC2C1(C)CC(O)C13CC14C(=O)CC(O)C(C)(C(=O)O)C4C(=O)CC23O)C(C)C [FR171456, (1R,2aR,3R,5aR,5bS,7aR,8S,9S,11aS,12aR)-1,5b,9-trihydroxy-2a,8-dimethyl-3-((R)-6-methyl-5-methyleneheptan-2-yl)-7,11-dioxohexadecahydrocyclopenta[a]cyclopropa[e]-phenanthrene-8-carboxylic acid]
- concentration not affecting proliferation [1]: > 4 µM
- anti-proliferative activity across cell line panel [2]: not anti-proliferative; also recorded: unaffected; also recorded: only five cell lines were sensitive
- MIC [3]: 8 µg/mL and 18 µM
- MIC [4]: 72 µM and 32 µg/mL
- MIC [5]: 64 µg/mL and 144 µM
- MIC [6]: 32 µg/mL and 72 µM
- Loewe synergy score ([7]; combination of Amphotericin B and FR171456, text prints R. oryzae, Supplementary Fig. 4 F. solani): 2.7
- Loewe synergy score ([7]; combination with posaconazole): < 1
- IC50 [8]: 100 nM
- Erg26p precursor (4α-methylzymosterol-4-carboxylic acid) level ([9]; FR171456 1466 nM for 7 h): accumulates
- IC80 ([9]; Saccharomyces cerevisiae, yeast in YP-gal (2%)+Raffinose (1%), fermenter 30 °C): 1470 nM
- Ki [10]: 1350 ± 300 nM
- I50/Km ratio ([10]; for the carboxysterol substrate): ~4 × 10^−3
